Columns and labels:
[1] = Saturation concentration of paclitaxel in ethanol; format: physicochemical
Experimental: Nevertheless, the 30 mg/ml paclitaxel concentration is chosen for release studies as it produces the maximum paclitaxel loading (21-23%), while still being sufficiently below the saturation concentration for paclitaxel in ethanol (39 mg/ml).

[2] = Paclitaxel content of polyurethane coated stents by extraction in dichloromethane; format: physicochemical; details: 30 mg/ml paclitaxel concentration
Experimental: Slotted tube stainless steel stents are coated with polyurethane by spraying a 1 wt % solution of CHRONOFLEX® polyurethane (made by CT Biomaterials) in tetrahydrofuran directly onto the stent surface. The coated stents are dried in a vacuum oven for three hours at 70° C.
Each polyurethane coated stent is placed in a vial, which is filled to maximum volume (1.5 ml) with a solution of paclitaxel in ethanol, and sealed. The stent is stored in the vial for three days at room temperature. The stent is then removed from the vial and dried for one hour at 65° C.
The above procedure is conducted using solutions of varying concentrations. Each stent is analyzed for paclitaxel content by extraction in dichloromethane solvent. Samples 1 and 2 were obtained using a paclitaxel concentration of 10 mg/ml, samples 3 and 4 using a 20 mg/ml solution and sample 5 and 6 using a 30 mg/ml solution.
Seven polyurethane coated stents are loaded using a 30 mg/ml paclitaxel solution, removed and dried as set forth above. Paclitaxel from four of the stents is extracted in dichloromethane solvent.

[3] = In-vivo delivery of paclitaxel from polyacrylic acid-based coated balloon catheter; parameters: species or system pig; details: for Amount of paclitaxel released in bloodstream: loaded minus extracted; for Amount of paclitaxel extracted from balloon after delivery: polyacrylic acid-based coated balloon catheter
Experimental: A 9.8 mg/ml solution of radio-labeled paclitaxel in chloroform is prepared. A total of 50 μl of the solution is applied via pipet to a balloon catheter having a polyacrylic acid-based coating. The paclitaxel from the coated balloon catheter is then released in-vivo to porcine arteries. After release for a predetermined amount of time, the paclitaxel remaining in the coating is extracted using two sequential ethanol washes. The amount of paclitaxel released in the pig bloodstream, as calculated from the amount of paclitaxel loaded into the coating minus that extracted from the coating after delivery, is shown in Table II.

- saturation concentration for paclitaxel in ethanol [1]: 39 mg/mL
- maximum paclitaxel loading [2]: 21-23%
- % of paclitaxel released in bloodstream ([3]; 1 minute in bloodstream): 63%
- Amount of paclitaxel released in bloodstream ([3]; 1 minute in bloodstream): 307 µg
- Amount of paclitaxel extracted from balloon after delivery ([3]; 1 minute in bloodstream): 182 ± 1 µg
- % of paclitaxel released in bloodstream ([3]; 5 minutes in bloodstream): 68%
- Amount of paclitaxel released in bloodstream ([3]; 5 minutes in bloodstream): 330 µg
- Amount of paclitaxel extracted from balloon after delivery ([3]; 5 minutes in bloodstream): 160 ± 30 µg
Structure (SMILES): CC(=O)O[C@H]1C(=O)[C@@]2(C)[C@H]([C@H](OC(=O)c3ccccc3)[C@]3(O)C[C@H](OC(=O)[C@H](O)[C@@H](NC(=O)c4ccccc4)c4ccccc4)C(C)=C1C3(C)C)[C@]1(OC(C)=O)CO[C@@H]1C[C@@H]2O [paclitaxel]
